Assay results from patent publication US12077503B2, “Substituted cyclic amides and their use as herbicides” (FMC CORPORATION, priority 2015, dated 2024).

Key:
Assay type in all cases: in vivo
[1] = tested on: poinsettia, wild (wild poinsettia, Euphorbia heterophylla); test: Test E preemergence; details: scale 0 to 100
Summary of the method: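 Preemergence to seeds in silt loam, or postemergence to 1- to 4-leaf plants in peat-based potting mix; compound formulated in non-phytotoxic solvent plus surfactant. Greenhouse, 14–21 d. Visual injury vs. controls, 0 = no effect, 100 = complete control.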

[2] = tested on: giant foxtail (Setaria faberi); test: Test G Post-Emergence Protocol; details: Setaria faberi, post-emergence, 312 h; for pest or weed control at 15.625 g/ha: 15.625 g ai/ha, evaluated after 13 days (100=total damage to plant; 0=no damage to plant), read-out: Foxtail, Giant damage rating; for pest or weed control at 62.5 g/ha: 62.5 g ai/ha, read-out: Foxtail, Giant damage rating (100=total damage to plant; 0=no damage to plant); for pest or weed control at 62.5 g/ha / pest or weed control at 250 g/ha: evaluated after 13 days; for pest or weed control at 250 g/ha: 250 g ai/ha, read-out: damage to plant, Foxtail, Giant (100=total damage to plant; 0=no damage to plant)
Procedure: (§1) Seeds of corn (Zea mays), giant foxtail (Setaria faberi), barnyardgrass (Echinochloa crus-galli), ivy-leaved morning glory (Ipomoea hederacea), redroot pigweed (Amaranthus retroflexus) and velvetleaf (Abutilon theophrasti) were sown in standard soil in pots. After cultivation for 8 days under controlled conditions in a glasshouse (at 24/16° C., day/night; 14 hours light; 65% humidity), the plants were sprayed with an aqueous spray solution derived from the formulation of the technical active ingredient in acetone/water (50:50) solution containing 0.5% Tween 20 (polyoxyethylene sorbitan monolaurate, CAS RN 9005-64-5) to give a final dose of 15.625, 62.5 or 250 g/ha of test compound.
(§2) The test plants were then grown on under controlled conditions in a glasshouse (at 24/16° C., day/night; 14 hours light; 65% humidity) and watered twice daily. After 13 days the test was evaluated (100=total damage to plant; 0=no damage to plant). A dash (-) means no test result.

[3] = tested on: ivy-leaved morning glory (Ipomoea hederacea); test: Test G Post-Emergence Protocol; details: Ipomoea, post-emergence, 312 h; for pest or weed control at 15.625 g/ha: 15.625 g ai/ha, evaluated after 13 days (100=total damage to plant; 0=no damage to plant), read-out: Morningglory, Ivy-leaved damage rating; for pest or weed control at 62.5 g/ha: 62.5 g ai/ha, read-out: Morningglory, Ivy-leaved damage rating (100=total damage to plant; 0=no damage to plant); for pest or weed control at 62.5 g/ha / pest or weed control at 250 g/ha: evaluated after 13 days; for pest or weed control at 250 g/ha: 250 g ai/ha, read-out: damage to plant, Morningglory, Ivy-leaved (100=total damage to plant; 0=no damage to plant)
Procedure: as §1, §2

[4] = tested on: corn (Zea mays); test: Test G Post-Emergence Protocol; details: Zea mays, post-emergence, 312 h; for plant injury at 15.625 g/ha: 15.625 g ai/ha, evaluated after 13 days (100=total damage to plant; 0=no damage to plant), read-out: Corn damage rating; for plant injury at 62.5 g/ha: 62.5 g ai/ha, read-out: Corn damage rating (100=total damage to plant; 0=no damage to plant); for plant injury at 62.5 g/ha / plant injury at 250 g/ha: evaluated after 13 days; for plant injury at 250 g/ha: 250 g ai/ha, read-out: damage to plant, Corn (100=total damage to plant; 0=no damage to plant)
Procedure: as §1, §2

[5] = tested on: velvetleaf (Abutilon theophrasti); test: Test G Post-Emergence Protocol; details: Abutilon theophrasti, post-emergence, 312 h; for pest or weed control at 15.625 g/ha: 15.625 g ai/ha, evaluated after 13 days (100=total damage to plant; 0=no damage to plant), read-out: Velvetleaf damage rating; for pest or weed control at 62.5 g/ha: 62.5 g ai/ha, read-out: Velvetleaf damage rating (100=total damage to plant; 0=no damage to plant); for pest or weed control at 62.5 g/ha / pest or weed control at 250 g/ha: evaluated after 13 days; for pest or weed control at 250 g/ha: 250 g ai/ha, read-out: damage to plant, Velvetleaf (100=total damage to plant; 0=no damage to plant)
Procedure: as §1, §2

[6] = tested on: redroot pigweed (Amaranthus retroflexus); test: Test G Post-Emergence Protocol; details: Amaranthus retroflexus, post-emergence, 312 h; for pest or weed control at 15.625 g/ha: 15.625 g ai/ha, evaluated after 13 days (100=total damage to plant; 0=no damage to plant), read-out: Pigweed, Redroot damage rating; for pest or weed control at 62.5 g/ha: 62.5 g ai/ha, read-out: Pigweed, Redroot damage rating (100=total damage to plant; 0=no damage to plant); for pest or weed control at 62.5 g/ha / pest or weed control at 250 g/ha: evaluated after 13 days; for pest or weed control at 250 g/ha: 250 g ai/ha, read-out: damage to plant, Pigweed, Redroot (100=total damage to plant; 0=no damage to plant)
Procedure: as §1, §2

[7] = tested on: barnyardgrass (Echinochloa crus-galli); test: Test G Post-Emergence Protocol; details: Echinochloa crus-galli, post-emergence, 312 h; for pest or weed control at 15.625 g/ha: 15.625 g ai/ha, evaluated after 13 days (100=total damage to plant; 0=no damage to plant), read-out: Barnyardgrass damage rating; for pest or weed control at 62.5 g/ha: 62.5 g ai/ha, read-out: Barnyardgrass damage rating (100=total damage to plant; 0=no damage to plant); for pest or weed control at 62.5 g/ha / pest or weed control at 250 g/ha: evaluated after 13 days; for pest or weed control at 250 g/ha: 250 g ai/ha, read-out: damage to plant, Barnyardgrass (100=total damage to plant; 0=no damage to plant)
Procedure: as §1, §2

Compound	Plant response rating: Poinsettia, Wild ([1]; 31 g ai/ha)	Plant response rating: Poinsettia, Wild ([1]; 62 g ai/ha)	Plant response rating: Poinsettia, Wild ([1]; 125 g ai/ha)	Plant response rating: Poinsettia, Wild ([1]; 250 g ai/ha)	pest or weed control at 15.625 g/ha [2] [%]	pest or weed control at 62.5 g/ha [2] [%]	pest or weed control at 250 g/ha [2] [%]	pest or weed control at 15.625 g/ha [3] [%]	pest or weed control at 62.5 g/ha [3] [%]	pest or weed control at 250 g/ha [3] [%]	plant injury at 15.625 g/ha [4] [%]	plant injury at 62.5 g/ha [4] [%]	plant injury at 250 g/ha [4] [%]	pest or weed control at 15.625 g/ha [5] [%]	pest or weed control at 62.5 g/ha [5] [%]	pest or weed control at 250 g/ha [5] [%]	pest or weed control at 15.625 g/ha [6] [%]	pest or weed control at 62.5 g/ha [6] [%]	pest or weed control at 250 g/ha [6] [%]	pest or weed control at 15.625 g/ha [7] [%]	other results
CN1CC(c2ccc(C(F)(F)F)cc2)C(C(=O)Nc2ccccc2S(C)(=O)=O)C1=O (centres unmarked) [Compound 624]	20	20	30	40	–	–	–	–	–	–	–	–	–	–	–	–	–	–	–	–	–
CN1CC(c2cccc(C(F)(F)F)c2)C(C(=O)Nc2ccccc2S(C)(=O)=O)C1=O (centres unmarked) [Compound 637]	0	0	20	25	–	–	–	–	–	–	–	–	–	–	–	–	–	–	–	–	–
Cc1ccc([C@H]2CN(C)C(=O)[C@@H]2C(=O)Nc2cccnc2F)cc1 [Compound 1398]	–	–	–	–	80	80	80	0	40	60	30	70	80	0	40	40	0	50	60	80	pest or weed control at 62.5 g/ha [7]: 80%; pest or weed control at 250 g/ha [7]: 80%
Cc1ccc([C@H]2CN(C)C(=O)[C@@H]2C(=O)Nc2ccc(F)nc2F)cc1 [Compound 1402]	–	–	–	–	80	80	80	10	40	60	70	80	80	0	30	50	10	60	60	80	pest or weed control at 62.5 g/ha [7]: 80%; pest or weed control at 250 g/ha [7]: 80%
